What was measured:
NIH3T3 = assay: Inhibitory activity tested in NIH 3T3 cells; format: functional, cell-based; settings: Mus musculus
[1] = target: Mitogen-activated protein kinase 14 (Homo sapiens, UniProt Q16539); assay: Inhibitory activity against Mitogen-activated protein kinase p38
[2] = Inhibitory activity against TGF-beta dependent luciferase production in mink lung cells p3TP Lux; format: functional, cell-based

Sequence of Mitogen-activated protein kinase 14 (Q16539 whole entry): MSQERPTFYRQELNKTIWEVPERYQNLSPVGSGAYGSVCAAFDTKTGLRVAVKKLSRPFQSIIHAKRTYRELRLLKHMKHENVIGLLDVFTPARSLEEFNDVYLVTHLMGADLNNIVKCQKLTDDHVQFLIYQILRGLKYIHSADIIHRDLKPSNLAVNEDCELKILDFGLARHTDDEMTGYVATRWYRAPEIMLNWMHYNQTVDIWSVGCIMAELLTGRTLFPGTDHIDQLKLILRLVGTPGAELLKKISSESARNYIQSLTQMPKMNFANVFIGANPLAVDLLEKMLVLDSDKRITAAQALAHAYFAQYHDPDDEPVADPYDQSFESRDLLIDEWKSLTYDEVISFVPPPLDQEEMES

| Compound | IC50 [1] [µM] | IC50 [2] [nM] | IC50 (NIH3T3) [nM] |
| --- | --- | --- | --- |
| Fc1ccc(-c2c(-c3ccccn3)nn3c2CCC3)cc1 | > 20 | 3860 | 3330 |
| Cc1cccc(-c2nn3c(c2-c2ccnc4cc(Cl)ccc24)CCC3)n1 | 0.44 | 93 | 727 |
| CCc1cccc(-c2nn3c(c2-c2ccnc4ccccc24)CCC3)n1 | 0.62 | 143 | 500 |
| Cc1cccc(-c2n[nH]cc2-c2ccc(O)cc2)n1 | 31 | – | – |
| CCOc1ccc2c(-c3c(-c4cccc(C)n4)nn4c3CCC4)ccnc2c1 | 0.059 | 86 | 152 |
| Fc1ccc(-c2nn3c(c2-c2ccnc4ccccc24)CCC3)nc1 | 11 | 475 | 664 |
| CCS(=O)(=O)c1ccc2c(-c3c(-c4ccccn4)nn4c3CCC4)ccnc2c1 | 9.8 | > 20000 | – |
| c1ccc(-c2nn3c(c2-c2ccnc4ccccc24)CCC3)nc1 | 7.9 | 345 | 51000 |
| CCSc1ccc2c(-c3c(-c4ccccn4)nn4c3CCC4)ccnc2c1 | 1.6 | 285 | 326 |
| CC(C)c1cccc(-c2nn3c(c2-c2ccnc4ccccc24)CCC3)n1 | 15 | 2000 | 2000 |
| Clc1ccc2c(-c3c(-c4ccccn4)nn4c3CCC4)ccnc2c1 | 1.8 | 196 | 282 |

More lines, main results first:

| IC50 [1] [µM] | IC50 [2] [nM] | Compound | IC50 (NIH3T3) [nM] |
| --- | --- | --- | --- |
| 4.3 | 22 | Cc1cccc(-c2nn3c(c2-c2ccc(O)cc2)CCC3)n1 | 105 |
| – | > 20000 | Cc1cccc(-c2nn3c(c2-c2ccc(S(C)(=O)=O)cc2)CCC3)n1 | > 20000 |
| – | 1510 | Cc1cccc(-c2nn3c(c2-c2ccc(F)c(F)c2)CCC3)n1 | 1040 |
| – | 11800 | OCc1cccc(-c2nn3c(c2-c2ccc(F)cc2)CCC3)n1 | 5620 |
| – | 2550 | Fc1ccc(-c2c(-c3cccc(C(F)(F)F)n3)nn3c2CCC3)cc1 | 1200 |
| – | 6830 | COc1ccc(-c2c(-c3ccccn3)nn3c2CCC3)cc1 | 4710 |
| > 20 | 96 | Cc1cccc(-c2nn3c(c2-c2ccc(F)cc2)CCC3)n1 | 339 |
| – | > 20000 | Cc1ccc(-c2c(-c3cccc(C)n3)nn3c2CCC3)cc1 | > 20000 |
| 0.68 | 94 | Cc1cccc(-c2nn3c(c2-c2ccnc4ccccc24)CCC3)n1 | 280 |
| 4.6 | 304 | COc1ccc(-c2c(-c3cccc(C)n3)nn3c2CCC3)cc1 | 397 |

— ChEMBL document CHEMBL1147482, “Novel and potent transforming growth factor beta type I receptor kinase domain inhibitor: 7-amino 4-(2-pyridin-2-yl-5,6-dihydro-4H-pyrrolo[1,2-b]pyrazol-3-yl)-quinolines” (Bioorg Med Chem Lett, 2004)
